Data set [1] is described as follows: Ratio of drug level in brain to plasma of Sprague-Dawley rat at 10 mg/kg, po after 2 hrs. More on the design: dose 10 mg/kg, route oral. It counts as ADME, organism-based. As to conditions: read-out: BPR.
Data set [2] is described as follows: Drug concentration in Sprague-Dawley rat CSF at 10 mg/kg, po after 2 hrs. It counts as ADME, organism-based, Cerebrospinal fluid. The arrangement: dose 10 mg/kg, route oral. As to conditions: read-out: Drug uptake.
Data set [3] is described as follows: Drug concentration in Sprague-Dawley rat brain at 10 mg/kg, po after 2 hrs. Format: ADME, organism-based. More on the design: dose 10 mg/kg, route oral. The following applies: read-out: Drug uptake.
Data set [4] in a line: Plasma concentration in Sprague-Dawley rat at 10 mg/kg, po after 2 hrs. It counts as ADME, organism-based. More on the design: dose 10 mg/kg, route oral.
The target of data set [5] is Voltage-gated inwardly rectifying potassium channel KCNH2 (Homo sapiens, UniProt Q12809). Briefly: Binding affinity to human ERG.
Voltage-gated inwardly rectifying potassium channel KCNH2, sequence (Q12809 whole entry): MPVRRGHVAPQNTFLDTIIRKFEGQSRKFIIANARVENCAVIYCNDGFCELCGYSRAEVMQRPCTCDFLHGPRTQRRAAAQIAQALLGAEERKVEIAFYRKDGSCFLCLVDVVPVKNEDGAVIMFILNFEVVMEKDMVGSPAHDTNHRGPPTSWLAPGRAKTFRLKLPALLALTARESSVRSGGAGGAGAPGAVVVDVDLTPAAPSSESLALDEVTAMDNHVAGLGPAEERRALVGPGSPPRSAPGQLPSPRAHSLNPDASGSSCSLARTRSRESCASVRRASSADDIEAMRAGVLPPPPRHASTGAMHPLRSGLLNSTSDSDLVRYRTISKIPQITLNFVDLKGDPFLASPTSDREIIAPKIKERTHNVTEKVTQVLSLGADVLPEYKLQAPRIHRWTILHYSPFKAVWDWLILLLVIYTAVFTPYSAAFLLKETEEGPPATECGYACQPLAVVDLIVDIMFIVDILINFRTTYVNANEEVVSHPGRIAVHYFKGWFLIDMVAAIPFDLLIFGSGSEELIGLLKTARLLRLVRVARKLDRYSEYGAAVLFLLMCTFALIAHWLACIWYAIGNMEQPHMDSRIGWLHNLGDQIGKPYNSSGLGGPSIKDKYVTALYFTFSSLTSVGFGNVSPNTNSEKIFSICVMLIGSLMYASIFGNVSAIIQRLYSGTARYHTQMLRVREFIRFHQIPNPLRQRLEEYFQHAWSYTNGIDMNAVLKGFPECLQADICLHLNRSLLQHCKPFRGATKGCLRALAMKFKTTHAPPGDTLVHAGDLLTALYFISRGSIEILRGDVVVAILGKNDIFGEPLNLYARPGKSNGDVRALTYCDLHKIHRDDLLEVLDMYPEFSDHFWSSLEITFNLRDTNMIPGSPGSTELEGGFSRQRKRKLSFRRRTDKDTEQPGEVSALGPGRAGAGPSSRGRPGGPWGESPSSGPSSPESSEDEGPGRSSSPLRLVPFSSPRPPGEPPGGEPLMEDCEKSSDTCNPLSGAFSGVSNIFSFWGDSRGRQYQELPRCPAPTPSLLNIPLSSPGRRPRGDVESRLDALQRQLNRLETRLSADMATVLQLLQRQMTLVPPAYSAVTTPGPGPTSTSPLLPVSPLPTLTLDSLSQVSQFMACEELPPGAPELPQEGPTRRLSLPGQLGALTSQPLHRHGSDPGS
Data set [6] is described as follows: Protein binding in rat plasma. As to conditions: read-out: PPB (converted). Format: ADME, cell-free.
Data set [7] is described as follows: Protein binding in human plasma. Format: ADME, cell-free. As to conditions: read-out: PPB (converted).
Data set [8] is described as follows: Passive permeability across MDCK cells. It counts as ADME, cell-based, Canis lupus familiaris. The following applies: dog.
Data set [9] concerns the target T1, Muscarinic acetylcholine receptor M4 (Homo sapiens) (UniProt P08173).
T1 sequence (whole entry): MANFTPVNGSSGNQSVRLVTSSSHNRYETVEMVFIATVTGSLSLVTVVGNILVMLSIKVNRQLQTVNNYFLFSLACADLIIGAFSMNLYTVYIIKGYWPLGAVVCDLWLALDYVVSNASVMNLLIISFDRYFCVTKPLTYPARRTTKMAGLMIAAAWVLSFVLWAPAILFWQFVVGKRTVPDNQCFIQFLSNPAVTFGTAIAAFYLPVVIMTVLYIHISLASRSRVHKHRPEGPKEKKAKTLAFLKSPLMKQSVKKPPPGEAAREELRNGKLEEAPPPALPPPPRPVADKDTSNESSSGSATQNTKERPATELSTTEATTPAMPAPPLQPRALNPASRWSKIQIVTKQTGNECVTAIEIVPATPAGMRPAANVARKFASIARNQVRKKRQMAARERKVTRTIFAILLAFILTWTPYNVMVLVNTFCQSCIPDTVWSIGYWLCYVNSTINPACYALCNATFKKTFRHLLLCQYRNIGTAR
In words: Activity at muscarinic M4 receptor expressing in CHONFAT cells assessed as potentiation of acetylcholine-induced calcium mobilization preincubated for 4 mins and measured 4 mins after acetylcholine stimulation by FLIPR assay. It counts as functional, cell-based. (In general: A change in cytosolic calcium serves as a functional read-out for many receptors and channels.)

In data set [10] the target is Muscarinic acetylcholine receptor M3 (Homo sapiens) (UniProt P20309). Briefly: Activity at muscarinic M3 receptor expressing in CHONFAT cells assessed as potentiation of acetylcholine-induced calcium mobilization preincubated for 4 mins and measured 4 mins after acetylcholine stimulation by FLIPR assay. Format: functional, cell-based.
Muscarinic acetylcholine receptor M3 (Homo sapiens), sequence (P20309 whole entry, looked up): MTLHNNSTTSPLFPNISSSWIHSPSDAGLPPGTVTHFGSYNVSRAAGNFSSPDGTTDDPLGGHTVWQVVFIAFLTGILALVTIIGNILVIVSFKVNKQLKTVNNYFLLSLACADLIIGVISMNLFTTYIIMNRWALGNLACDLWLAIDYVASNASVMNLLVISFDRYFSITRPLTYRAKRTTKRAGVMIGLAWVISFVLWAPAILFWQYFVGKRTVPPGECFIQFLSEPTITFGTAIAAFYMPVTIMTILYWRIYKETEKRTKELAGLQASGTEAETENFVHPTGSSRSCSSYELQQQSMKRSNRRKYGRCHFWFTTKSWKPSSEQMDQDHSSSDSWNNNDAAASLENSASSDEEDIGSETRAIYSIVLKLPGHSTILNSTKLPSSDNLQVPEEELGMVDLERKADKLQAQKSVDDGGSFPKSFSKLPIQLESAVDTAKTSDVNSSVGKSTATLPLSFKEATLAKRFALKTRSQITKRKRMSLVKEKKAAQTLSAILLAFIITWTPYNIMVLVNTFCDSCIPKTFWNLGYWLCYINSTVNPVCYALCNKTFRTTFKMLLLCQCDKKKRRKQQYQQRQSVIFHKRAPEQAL
Data set [11] addresses T2, Muscarinic acetylcholine receptor M2 (Homo sapiens) (UniProt P08172).
T2 sequence (whole entry): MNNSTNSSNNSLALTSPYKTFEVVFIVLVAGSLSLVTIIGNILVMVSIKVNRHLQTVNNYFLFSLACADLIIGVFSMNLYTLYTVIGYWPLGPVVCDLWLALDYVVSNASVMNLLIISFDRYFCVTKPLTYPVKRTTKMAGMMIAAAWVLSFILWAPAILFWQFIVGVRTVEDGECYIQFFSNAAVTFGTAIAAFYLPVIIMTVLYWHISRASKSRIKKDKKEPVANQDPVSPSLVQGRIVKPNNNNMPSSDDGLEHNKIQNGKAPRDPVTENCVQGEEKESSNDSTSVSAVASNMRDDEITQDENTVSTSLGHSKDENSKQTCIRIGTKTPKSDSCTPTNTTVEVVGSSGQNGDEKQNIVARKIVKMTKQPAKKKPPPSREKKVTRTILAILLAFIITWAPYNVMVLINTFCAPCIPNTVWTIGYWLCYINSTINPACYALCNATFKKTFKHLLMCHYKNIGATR
In words: Activity at muscarinic M2 receptor expressing in CHONFAT cells assessed as potentiation of acetylcholine-induced calcium mobilization preincubated for 4 mins and measured 4 mins after acetylcholine stimulation by FLIPR assay. It counts as functional, cell-based.

Data set [12] has as its target T3, Muscarinic acetylcholine receptor M1 (Homo sapiens) (UniProt P11229).
T3 sequence (whole entry): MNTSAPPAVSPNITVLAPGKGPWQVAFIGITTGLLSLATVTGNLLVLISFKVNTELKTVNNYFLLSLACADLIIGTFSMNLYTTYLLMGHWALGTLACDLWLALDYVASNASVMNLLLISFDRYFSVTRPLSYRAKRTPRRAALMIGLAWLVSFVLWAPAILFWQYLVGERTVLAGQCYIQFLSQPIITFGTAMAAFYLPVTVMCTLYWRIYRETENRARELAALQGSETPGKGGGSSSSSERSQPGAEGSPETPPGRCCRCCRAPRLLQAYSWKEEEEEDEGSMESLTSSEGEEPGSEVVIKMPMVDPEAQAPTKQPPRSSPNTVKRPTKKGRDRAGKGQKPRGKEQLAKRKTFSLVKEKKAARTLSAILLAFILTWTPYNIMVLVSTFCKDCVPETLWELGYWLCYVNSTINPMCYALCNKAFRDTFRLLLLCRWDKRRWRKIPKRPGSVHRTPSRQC
Briefly: Positive allosteric modulation of human muscarinic M1 receptor expressing in CHONFAT cells assessed as potentiation of acetylcholine-induced calcium mobilization preincubated for 4 mins and measured 4 mins after acetylcholine stimulation by FLIPR assay. It counts as functional, cell-based.

A further data set concerns the target MDR1a (P-gp, ABCB1) (Rattus norvegicus, UniProt P43245). In words: in vitro. As to conditions: not told.
The next data set has as its target MDR1 (P-gp, ABCB1) (Homo sapiens, UniProt P08183). In words: in vitro. As to conditions: not told.
The test system of another data set is Rattus norvegicus. Briefly: Ratio of drug level in CSF to unbound drug level in plasma of Sprague-Dawley rat at 10 mg/kg, po after 2 hrs. As to conditions: in vivo.
The species entered for data set [13] is Mus musculus. Briefly: Inhibition of scopolamine-induced memory deficit in mouse measured at plasma concentration of 1 uM after 24 hrs by contexual fear conditioning assay. Format: functional, organism-based.
The species entered for data set [14] is Mus musculus. In words: Inhibition of scopolamine-induced memory deficit in mouse measured at plasma concentration of 2.5 uM after 24 hrs by contexual fear conditioning assay. Format: functional, organism-based.
Data set [15] deals with T3, Muscarinic acetylcholine receptor M1 (Homo sapiens). In words: Positive allosteric modulation of human muscarinic M1 receptor expressing in CHONFAT cells assessed as potentiation of acetylcholine-induced calcium mobilization at 34 uM preincubated for 4 mins and measured 4 mins after acetylcholine stimulation by FLIPR assay relative to untreated control. Format: functional, cell-based.

The subject of the next data set is Plasma. In words: Plasma concentration in mouse scopolamine-induced memory deficit model at 10 mg/kg, ip. Format: ADME, organism-based. The arrangement: dose 10 mg/kg, route intraperitoneal. As to conditions: in vivo.
Data set [16] deals with Mus musculus. Briefly: Inhibition of scopolamine-induced memory deficit in mouse pretreated with 10 to 30 mg/kg, ip after 24 hrs by contexual fear conditioning assay. Format: functional, organism-based.
A short description of data set [17]: Fraction unbound in human plasma. Format: ADME, cell-free.
Data set [18] can be described thus: Fraction unbound in rat plasma. It counts as ADME, cell-free.

The source made the active and inactive calls. No cut-off for these calls is given here.

The record followed here is ChEMBL document CHEMBL2203078, “Identification of amides as carboxylic Acid surrogates for quinolizidinone-based m1 positive allosteric modulators” (ACS Med Chem Lett, 2012).

As a reminder, the IC50 is the concentration that gives 50% inhibition. By Papp is commonly meant a coefficient for how fast a substance crosses the barrier. The low end stands for slow passage, the high end for fast passage. A word on the efflux ratio: it is the permeability from basolateral to apical divided by that in the opposite direction, in the common usage.

MDR1 (P-gp, ABCB1), sequence (P08183 whole entry): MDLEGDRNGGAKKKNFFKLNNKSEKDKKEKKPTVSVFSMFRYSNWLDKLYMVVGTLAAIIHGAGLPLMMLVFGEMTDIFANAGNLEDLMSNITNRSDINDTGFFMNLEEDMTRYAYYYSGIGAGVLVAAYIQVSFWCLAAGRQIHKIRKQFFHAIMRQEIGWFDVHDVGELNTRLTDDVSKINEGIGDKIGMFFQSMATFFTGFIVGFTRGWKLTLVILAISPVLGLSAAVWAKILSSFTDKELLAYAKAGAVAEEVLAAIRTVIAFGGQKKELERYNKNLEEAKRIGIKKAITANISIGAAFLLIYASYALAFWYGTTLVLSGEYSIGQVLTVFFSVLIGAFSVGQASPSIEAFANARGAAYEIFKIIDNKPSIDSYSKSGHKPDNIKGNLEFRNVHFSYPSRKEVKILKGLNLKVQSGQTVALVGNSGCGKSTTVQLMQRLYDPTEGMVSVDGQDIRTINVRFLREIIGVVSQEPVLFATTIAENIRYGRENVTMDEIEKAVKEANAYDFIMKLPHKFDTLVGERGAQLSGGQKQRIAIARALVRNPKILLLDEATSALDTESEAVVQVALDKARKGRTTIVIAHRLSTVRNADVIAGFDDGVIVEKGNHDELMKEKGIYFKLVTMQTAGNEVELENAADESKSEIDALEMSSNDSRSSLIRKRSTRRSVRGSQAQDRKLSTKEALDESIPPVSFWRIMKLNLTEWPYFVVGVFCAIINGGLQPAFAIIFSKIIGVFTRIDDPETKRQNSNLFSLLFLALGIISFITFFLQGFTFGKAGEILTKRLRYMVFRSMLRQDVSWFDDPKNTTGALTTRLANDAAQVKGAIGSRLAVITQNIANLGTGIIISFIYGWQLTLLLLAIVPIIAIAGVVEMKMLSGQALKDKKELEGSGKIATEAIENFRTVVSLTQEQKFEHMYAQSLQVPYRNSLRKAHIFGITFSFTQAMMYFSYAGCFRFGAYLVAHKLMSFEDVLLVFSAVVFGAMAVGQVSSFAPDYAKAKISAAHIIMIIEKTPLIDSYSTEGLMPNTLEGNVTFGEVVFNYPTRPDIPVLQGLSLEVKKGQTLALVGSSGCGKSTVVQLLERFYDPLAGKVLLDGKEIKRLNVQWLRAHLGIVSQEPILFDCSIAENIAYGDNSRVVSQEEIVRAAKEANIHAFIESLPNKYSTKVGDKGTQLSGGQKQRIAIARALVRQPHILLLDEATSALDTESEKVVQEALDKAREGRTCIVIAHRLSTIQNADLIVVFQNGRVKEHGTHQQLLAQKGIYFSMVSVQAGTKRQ
MDR1a (P-gp, ABCB1), sequence (P43245 whole entry): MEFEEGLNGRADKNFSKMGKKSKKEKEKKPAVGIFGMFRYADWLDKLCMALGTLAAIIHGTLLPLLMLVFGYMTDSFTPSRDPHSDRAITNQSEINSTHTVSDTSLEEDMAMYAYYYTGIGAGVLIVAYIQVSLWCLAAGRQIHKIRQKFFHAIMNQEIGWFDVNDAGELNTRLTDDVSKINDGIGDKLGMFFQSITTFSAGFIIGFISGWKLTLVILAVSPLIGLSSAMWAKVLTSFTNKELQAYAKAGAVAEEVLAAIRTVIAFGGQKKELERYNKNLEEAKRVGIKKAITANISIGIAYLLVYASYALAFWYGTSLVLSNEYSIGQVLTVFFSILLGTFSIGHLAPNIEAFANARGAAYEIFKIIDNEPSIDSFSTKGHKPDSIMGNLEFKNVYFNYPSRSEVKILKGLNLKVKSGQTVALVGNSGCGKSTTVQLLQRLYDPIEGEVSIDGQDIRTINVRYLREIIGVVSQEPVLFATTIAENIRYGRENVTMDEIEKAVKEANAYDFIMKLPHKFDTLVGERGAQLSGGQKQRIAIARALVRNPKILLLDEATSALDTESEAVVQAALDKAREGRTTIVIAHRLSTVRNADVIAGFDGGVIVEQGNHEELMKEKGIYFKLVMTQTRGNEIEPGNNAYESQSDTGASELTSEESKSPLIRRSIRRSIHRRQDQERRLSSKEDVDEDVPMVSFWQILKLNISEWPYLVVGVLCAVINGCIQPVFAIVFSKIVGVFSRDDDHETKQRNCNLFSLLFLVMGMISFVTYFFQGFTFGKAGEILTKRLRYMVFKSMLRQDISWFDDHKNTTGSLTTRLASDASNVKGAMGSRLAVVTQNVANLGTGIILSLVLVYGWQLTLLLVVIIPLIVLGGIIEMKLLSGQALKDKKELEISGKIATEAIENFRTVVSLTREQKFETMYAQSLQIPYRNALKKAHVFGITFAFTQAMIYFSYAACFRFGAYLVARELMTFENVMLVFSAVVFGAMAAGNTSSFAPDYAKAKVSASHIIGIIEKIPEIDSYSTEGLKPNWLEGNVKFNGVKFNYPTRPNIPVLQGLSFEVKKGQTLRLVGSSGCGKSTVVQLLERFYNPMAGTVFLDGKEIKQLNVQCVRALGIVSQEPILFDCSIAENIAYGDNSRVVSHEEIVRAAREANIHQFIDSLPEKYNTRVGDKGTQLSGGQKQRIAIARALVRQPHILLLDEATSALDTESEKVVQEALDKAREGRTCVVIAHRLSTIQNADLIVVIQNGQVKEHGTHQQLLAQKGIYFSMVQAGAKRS
Description for MDR1 (P-gp, ABCB1): Efflux ratio assessed as human MDR1-mediated directional transport ratio from basolateral to apical over apical to basolateral by cell based assay
Description for MDR1a (P-gp, ABCB1): Efflux ratio assessed as rat MDR1a-mediated directional transport ratio from basolateral to apical over apical to basolateral by cell based assay

In the case of `N#CC1(c2ccccc2)CCN(Cc2cc(C(=O)N[C@H]3CCCC[C@@H]3O)c(=O)n3ccccc23)CC1`, in data set [1], the Kp at 2 h came out at 0.52. Further, the concentration at 2 h in data set [2] was determined as 29 nM; in [3] it was 896 nM; in data set [4], 1610 nM. In addition, the IC50 in [5] came out at 5100 nM. Besides, the fraction unbound in [6] is 0.031; in [7], 0.148. Also, in data set [8], the Papp was 32 ×10⁻⁶ cm/s. The outcome in data set [9], in data set [10] and in data set [11] was inactive. Further, the IP in data set [12] was determined as 45 nM. Also, the efflux ratio at MDR1a (P-gp, ABCB1) came to 3.3; on MDR1 (P-gp, ABCB1), 2.3. The Ratio with Rattus norvegicus came to 0.58.
Regarding `N#CC1(c2ccccn2)CCN(Cc2cc(C(=O)O)c(=O)n3ccccc23)CC1` [MSD-M1PAM], the inhibition entry in the data set filed under Mus musculus [13] was “Active”. Further, the concentration at 2 h in [4] was determined as 1480 nM. Further, the fraction unbound is 0.318 in data set [6] and 0.291 in [7]. This molecule showed a Papp in [8] of 18 ×10⁻⁶ cm/s. In addition, the efflux ratio on MDR1a (P-gp, ABCB1) was 1.4; on MDR1 (P-gp, ABCB1), 0.5. Besides, in the data set on Rattus norvegicus, the Ratio came to 0.3.
`N#CC1(c2ccccn2)CCN(Cc2cc(C(=O)NC3CCCCC3(F)F)c(=O)n3ccccc23)CC1` (stereo not drawn): the fraction unbound was 0.04 in data set [6] and 0.105 in data set [7]. The same molecule came in with a Papp in data set [8] of 29 ×10⁻⁶ cm/s. Besides, the result in [9], in [10] and in data set [11] was inactive. In addition, the IP in [12] turned out to be 205 nM. Moreover, the efflux ratio at MDR1a (P-gp, ABCB1) worked out at 3.4; on MDR1 (P-gp, ABCB1), 1.7.
Turning to `N#CC1(c2ccccn2)CCN(Cc2cc(C(=O)NC3CCCCC3)c(=O)n3ccccc23)CC1`, the results for the fraction unbound in data set [6] and in data set [7] were 0.044 and 0.066, respectively. This molecule also yielded a Papp in data set [8] of 28 ×10⁻⁶ cm/s. Moreover, the result in data set [9], in [10] and in data set [11] was inactive. For the same molecule, in data set [12], the IP came out at 253 nM. Besides, the efflux ratio on MDR1a (P-gp, ABCB1) is 2; on MDR1 (P-gp, ABCB1) it was 1.6.
`N#Cc1ccc(N2CCN(Cc3cc(C(=O)N[C@H]4CCCC[C@@H]4O)c(=O)n4ccccc34)CC2)cc1` had a concentration for half-maximal inhibition (IC50) in data set [5] of 390 nM. In addition, the results for the fraction unbound in data set [6] and in data set [7] were 0.061 and 0.095, respectively. Further, in [8], the Papp is 30 ×10⁻⁶ cm/s. The result in data set [9], in [10] and in data set [11] was inactive. The IP in data set [12] is 244 nM. The efflux ratio on MDR1a (P-gp, ABCB1) amounted to 4.7; at MDR1 (P-gp, ABCB1), 1.1.
With `O=C(N[C@H]1CCCC[C@@H]1O)c1cc(CN2CCN(c3cc4ccccc4cn3)CC2)c2ccccn2c1=O`, in the data set listed under Mus musculus [14], the inhibition entry is “Active”. The fraction unbound in [6] was 0.032; in data set [7] it was 0.087. This molecule also showed a Papp in [8] of 29 ×10⁻⁶ cm/s. In addition, the result in data set [9], in data set [10] and in data set [11] was inactive. Also, in data set [12], the IP was 110 nM.
As to `O=C(N[C@H]1CCCC[C@@H]1O)c1cc(CN2CCN(c3cc4scnc4cn3)CC2)c2ccccn2c1=O`, in [1], the Kp at 2 h was 0.19. In addition, the concentration at 2 h in data set [2] turned out to be 4 nM; in data set [3], 77 nM; in [4], 375 nM. Further, the values for the fraction unbound in data set [6] and in [7] were 0.051 and 0.082, respectively. For the same molecule, the Papp in [8] was determined as 37 ×10⁻⁶ cm/s. Also, the outcome in data set [9], in data set [10] and in [11] was inactive. In data set [12], the IP was 22 nM.
For `N#CC1(c2ccccn2)CCN(Cc2cc(C(=O)NC3CCOCC3)c(=O)n3ccccc23)CC1`, in data set [15], the fold change (FC) stood at 52. The same molecule yielded a concentration in the data set with Plasma of 2400 nM. Moreover, the inhibition entry in the data set on Mus musculus [16] was “Active”. Also, the Kp at 2 h in [1] worked out at 0.21. In addition, the concentration at 2 h in [2] came to 215 nM; in data set [3], 559 nM; in [4], 2650 nM. Further, the fraction unbound in data set [17] was 0.49; in data set [18], 0.27; in data set [6], 0.268; in [7], 0.49. The molecule also returned a Papp in data set [8] of 33 ×10⁻⁶ cm/s. For the same molecule, the outcome in data set [9], in data set [10] and in data set [11] was inactive. Further, the IP in data set [12] was found to be 338 nM. The efflux ratio was determined as 7.5 on MDR1a (P-gp, ABCB1) and 2.4 at MDR1 (P-gp, ABCB1). For the same molecule, in the data set on Rattus norvegicus, the Ratio is 0.3.
Consider `N#CC1(c2ccccn2)CCN(Cc2cc(C(=O)N[C@H]3CCCC[C@@H]3F)c(=O)n3ccccc23)CC1`, for which the Kp at 2 h in [1] was 0.28. Moreover, the concentration at 2 h in data set [2] is 27 nM; in data set [3], 280 nM; in data set [4], 1120 nM. The fraction unbound in data set [6] is 0.073; in data set [7] it was 0.185. In data set [8], this molecule showed a Papp of 26 ×10⁻⁶ cm/s. The result in data set [9], in [10] and in [11] was inactive. Besides, the IP in data set [12] was 147 nM. Further, the efflux ratio on MDR1a (P-gp, ABCB1) stood at 3.4; at MDR1 (P-gp, ABCB1) it was 1.9. For the same molecule, the Ratio in the data set on Rattus norvegicus was found to be 0.33.
